Publication PMC7816196, “Antitubercular 2-Pyrazolylpyrimidinones: Structure–Activity Relationship and Mode-of-Action Studies” (Journal of Medicinal Chemistry, 2021)
≈ marks a conversion by molar mass, not a printed value. Like-named read-outs stand apart in the source and are kept apart here.

Tests used:
[1] = Kinetic aqueous solubility at pH 7.4; type: physicochemical; settings: read-out: Solubility
Method: 3) In vitro ADME - assays
The kinetic solubility assay was p erfo rmed using a miniaturised shake flask method. 10 mM stock solutions of each of the test compounds were used to prepare calibration standards (10-220 µM) in DMSO. The same 10 mM stock soluti ons were accurately dispensed in duplicat e into 96-well plates and the DMSO dried down (MiVac GeneVac, 90 min, 37 °C). Thereafter, the samples were reconstituted (200 µM) in phosphate buffered saline (pH 7. 4) and shaken (20 hours,25 °C). The solutions were centrifuged, and the supernatant was an alysed by means of HPLC-DAD (Agilent 1200 Rapid Resolution HPLC with a diode array detector). Best fit calibration curves were constructed using the calibration standards, which were used to determine the aqueous samples’ solubility.4
The metabolic stability assay was performed in dup licate in a 96-well micro t itre plate. The test compounds (0.1 µM) were incubated individually in mouse, rat and pooled human liver microsomes (final protei n concentration of 0.4 m g/mL; XenoTech, Lenexa, KS), suspended in 0.1M phosphate buffer (pH 7.4) for predetermined time points, in the presence and abs ence of the cofactor NADPH (1 mM). Reactions were quenched by adding 300 µL of ice cold acetonitrile containing internal standard (carbamazepine, 0.0236 µg/mL). The samples were centrifuged and test in the supernatant were an alysed by means of LC-MS/MS ((Agilent Rapid Resolution HPLC, AB SCIEX 4500 MS). The rel ative loss of parent compound over time w as monitored and plots (concentration vs. time) were prepared per compound to determine the first order rate constant for compound depletion. This was in turn used to calculate h alf-life, in vitro intrinsic clearance and in vivo hepatic extraction ratio. Metabolite search es were not conducted during the met abolic stability assay.5

CHO cell-line = test: Cytotoxicity, MTT assay, CHO cells; settings: read-out: Cytotoxicity (CHO IC50)
Mtb H37Rv = test: MIC against Mtb H37Rv, Alamar Blue broth microdilution; type: cell-based, Mycobacterium tuberculosis
SAWC3385 = type: cell-based; settings: Cas 1/Delhi
SAWC1125 = test: microbe, parasite or virus in culture; type: cell-based; settings: Mycobacterium tuberculosis, 336 h; typical Beijing; day 14
Rv3247c hypomorph = test: MIC against thymidylate kinase hypomorph; type: cell-based, Mycobacterium tuberculosis
Excerpt: Based on the structural similarity of the compounds with the published thymidylate kinase inhibitors,[39],[40] we asked whether this compound series can inhibit Mtb thymidylate kinase, which is an essential target encoded by Rv3247c. To investigate this, we tested the activity of the compounds 1, 2, and 12 against the Rv3247c hypomorph.

SAWC3906 = type: cell-based; settings: atypic Beijing
SAWC2371 = test: microbe, parasite or virus in culture; type: cell-based; settings: Mycobacterium tuberculosis, 336 h; Haarlem; day 14
SAWC3388 = type: cell-based; settings: T1, Tuscany, T5/Rus
WT H37Rv = test: microbe, parasite or virus in culture; type: cell-based, M. tuberculosis; settings: Mycobacterium tuberculosis
[2] = test system: panel of 21 liability targets; settings: 10 μM test concentration
SAWC3933 = type: cell-based; settings: T1
SAWC3200 = test: microbe, parasite or virus in culture; type: cell-based; settings: Mycobacterium tuberculosis, 336 h; X1; day 14
SAWC4046 = type: cell-based; settings: Haarlem-like
mmpL3-TetON = test: microbe, parasite or virus in culture; type: cell-based, M. tuberculosis; settings: for MIC / MIC50: Mycobacterium tuberculosis
H37Rv = test: microbe, parasite or virus in culture; type: cell-based; settings: Mycobacterium tuberculosis, 336 h, 7H9 medium, day 14
[3] = Mouse pharmacokinetics, i.v. and oral; settings: for tolerability: mouse, i.v. 2 mg/kg or oral 20 mg/kg
in vivo = settings: male, C57/BL6, mouse
Mtb [4] = test: Checkerboard (2D) MIC assay with Fe2+ in GAST media; type: cell-based, Mycobacterium tuberculosis; settings: GAST medium, 100/200 μM Fe2+
Mtb [5] = test: microbe, parasite or virus in culture; type: cell-based, Mycobacterium tuberculosis
[6] = mouse blood samples from the PK studies
[7] = Mycobacterium tuberculosis, H37RV, supplement csv, medium not stated
[8] = male, C57/BL6, mouse, whole blood, iv, 2 mg/kg
[9] = male, C57/BL6, mouse, whole blood, po, 20 mg/kg

Compound | MIC99 day 14, SAWC3385 (SAWC3385) | MIC99 (SAWC1125) | MIC modulation upon silencing of Rv3247c (Rv3247c hypomorph) | MIC99 day 14, SAWC3906 (SAWC3906) | MIC99 (SAWC2371) | MIC99 day 14, SAWC3388 (SAWC3388) | MIC (Mtb H37Rv; [7]) | MIC50 (WT H37Rv; experiment: Follow-Up) | MIC50 (WT H37Rv; experiment: Initial) | inhibition or activation of the enzyme/receptors [2] | MIC99 (SAWC3200) | MIC99 day 14, SAWC4046 (SAWC4046) | change in MIC on transcriptional silencing of mmpL3 (mmpL3-TetON) | MIC (mmpL3-TetON; experiment: Follow-Up) | MIC50 (mmpL3-TetON; experiment: Follow-Up) | MIC (mmpL3-TetON; experiment: Initial) | MIC50 (mmpL3-TetON; experiment: Initial) | MIC99 (H37Rv) | tolerability [3] | other results
6-(3,5-Dimethyl-1H-pyrazol-1-yl)-4-phenylpyridin-2(1H)-one [Compound 5] | – | – | – | – | – | – | – | – | – | – | – | – | – | – | – | – | – | – | – | solubility at 20 h ([1]; aqueous (kinetic) solubility at pH 7.4): 185 µM; IC50 (CHO cell-line): > 50 µM; MIC (Mtb H37Rv): >50 µM; MIC (Mtb H37Rv; supplement csv, medium not stated): >50 µM
Cc1cc(C)n(-c2nc(O)cc(-c3ccccc3)n2)n1 [Compound 1, 2-(3,5-Dimethyl-1H-pyrazol-1-yl)-6-phenylpyrimidin-4(3H)-one] | 0.25 to 0.5 µM | 8 µM (≈ 2.13 µg/mL) | did not observe any MIC modulation | 0.25 µM (≈ 0.0666 µg/mL) | 0.25 to 0.5 µM (≈ 0.0666 to 0.133 µg/mL) | 0.25 to 0.5 µM | 1 µM (≈ 0.266 µg/mL) | 0.49 µM (≈ 0.13 µg/mL) | 0.26 µM (≈ 0.0692 µg/mL) | no significant inhibition or activation | 0.25 µM (≈ 0.0666 µg/mL) | 0.25 to 0.5 µM | no significant change | 0.57 µM (≈ 0.152 µg/mL) | 0.42 µM (≈ 0.112 µg/mL) | 0.7 µM (≈ 0.186 µg/mL) | 0.29 µM (≈ 0.0772 µg/mL) | 1 to 2 µM (≈ 0.266 to 0.533 µg/mL) | – | MIC (Mtb H37Rv; Mycobacterium tuberculosis, H37RV, antitubercular activity of the initial hits, medium not stated): < 2 µM; MIC (WT H37Rv; experiment: Follow-Up): 0.78 µM (≈ 0.208 µg/mL); MIC99 day 14, SAWC3933 (SAWC3933): 2 to 4 µM
Cc1cc(C)n(-c2nc(C(F)(F)F)cc(=O)[nH]2)n1 [Compound 12, 2-(3,5-Dimethyl-1H-pyrazol-1-yl)-6-(trifluoromethyl)pyrimidin-4(3H)-one] | 1 µM (≈ 0.258 µg/mL) | 8 to 16 µM (≈ 2.07 to 4.13 µg/mL) | did not observe any MIC modulation | 2 µM (≈ 0.516 µg/mL) | 2 µM (≈ 0.516 µg/mL) | 2 to 4 µM | – | 8.3 µM (≈ 2.14 µg/mL) | 4.5 µM (≈ 1.16 µg/mL) | no significant inhibition or activation | 1 µM (≈ 0.258 µg/mL) | 1 µM (≈ 0.258 µg/mL) | no significant change | – | 8.9 µM (≈ 2.3 µg/mL) | 6.2 µM (≈ 1.6 µg/mL) | 4.8 µM (≈ 1.24 µg/mL) | 2 µM (≈ 0.516 µg/mL) | well tolerated | solubility at 20 h ([1]; phosphate buffered saline, pH 7.4, aqueous (kinetic) solubility at pH 7.4): ≥ 200 µM; loss in activity (Mtb H37Rv; CH3 or CF3 at R1 instead of phenyl): 10–15 fold; MIC (WT H37Rv; experiment: Initial): 5.4 µM (≈ 1.39 µg/mL); AUC(0-inf) at 24 h [3, 8]: 48.8 µM·h; clearance at 24 h [3, 8]: 0.162 L/h/kg; bioavailability ([3]; male, C57/BL6, mouse, whole blood, oral, 20 mg/kg): ~40%; half-life at 24 h (in vivo; iv, 2 mg/kg): 3.1 h; half-life at 24 h (in vivo; po, 20 mg/kg): 4 h
Cc1cc(Nc2ccccn2)n(-c2nc(C(F)(F)F)cc(=O)[nH]2)n1 [Compound 45, 2-(3-Methyl-5-(pyridin-2-ylamino)-1H-pyrazol-1-yl)-6-(trifluoromethyl)pyrimidin-4(3H)-one] | – | – | – | – | – | – | – | – | – | – | – | – | – | – | – | – | – | – | – | increase in MIC (Mtb [4]): ≥ 32 fold; Fold-change of MIC (Mtb [5]; 200 µM Ferric ammonium citrate): 2-4 fold; MIC (Mtb [5]; Mycobacterium tuberculosis, […], supplement: None): 0.39 µM (≈ 0.131 µg/mL); MIC (Mtb H37Rv; Mycobacterium tuberculosis, H37RV, 168 h): ≤ 1 µM
CCNc1cc(C)nn1-c1nc(-c2cccnc2)cc(=O)[nH]1 [Compound 47, 2-(5-(Ethylamino)-3-methyl-1H-pyrazol-1-yl)-6-(pyridin-3-yl)pyrimidin-4(3H)-one] | – | – | – | – | – | – | 6 µM (≈ 1.78 µg/mL) | 3.5 µM (≈ 1.04 µg/mL) | 2.5 µM (≈ 0.741 µg/mL) | – | – | – | no significant change | 4.4 µM (≈ 1.3 µg/mL) | 3.2 µM (≈ 0.948 µg/mL) | 2.4 µM (≈ 0.711 µg/mL) | 2.1 µM (≈ 0.622 µg/mL) | – | well tolerated | major metabolite [6]: glucuronide; AUC(0-inf) [3, 8]: 1.52 µM·h; CLint scaled [3, 8]: > 240 L/h/kg; Cmax [3, 8]: 2.4 µM; Vd [3, 8]: 37.4 L/kg; AUC(0-inf) [3, 9]: 5.22 µM·h; Cmax [3, 9]: 2.9 µM; Tmax [3, 9]: 0.5 h; bioavailability [3, 9]: 33%; half-life (in vivo; iv, 2 mg/kg): 5.6 h; half-life (in vivo; po, 20 mg/kg): 4.4 h
